In patent publication US11331299B2, “Medicinal use of serrulatane diterpenes” (The University of Sydney, priority 2016, dated 2022):
Where two headings read alike, the source gives them in different places.

Key:
[1] = target: T1, PHIP(2) (h) bromodomain (Homo sapiens, UniProt Q8WWQ0); test: Epigenetic binding assay, Bromodomain; conditions: 10 μM; for inhibition at 10 µM: read-out: % Inhibition of Control Specific Binding
T1 construct: Bromodomain

[2] = target: T2, CBX2 (h) chromodomain (Homo sapiens, UniProt Q14781); test: Epigenetic binding assay, Chromodomain; conditions: read-out: % Inhibition of Control Specific Binding
T2 construct: Recognition and specificity determinants of the human cbx chromodomains; Eurofins CEREP (France), contract laboratory
T2 sequence (Q14781 12-70 limits assumed): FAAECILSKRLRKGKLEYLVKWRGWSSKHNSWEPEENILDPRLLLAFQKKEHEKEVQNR

[3] = tested on: H3K4 me2; test: Cell-based detection methyl modifications; conditions: read-out: % Inhibition of Control Values
[4] = target: T3, HAT1(h) (Homo sapiens, UniProt O14929); test: Epigenetic enzyme assay, Histone acetyltransferases (HATs); format: biochemical; conditions: read-out: % Inhibition of Control Values
T3 sequence (O14929 1-419): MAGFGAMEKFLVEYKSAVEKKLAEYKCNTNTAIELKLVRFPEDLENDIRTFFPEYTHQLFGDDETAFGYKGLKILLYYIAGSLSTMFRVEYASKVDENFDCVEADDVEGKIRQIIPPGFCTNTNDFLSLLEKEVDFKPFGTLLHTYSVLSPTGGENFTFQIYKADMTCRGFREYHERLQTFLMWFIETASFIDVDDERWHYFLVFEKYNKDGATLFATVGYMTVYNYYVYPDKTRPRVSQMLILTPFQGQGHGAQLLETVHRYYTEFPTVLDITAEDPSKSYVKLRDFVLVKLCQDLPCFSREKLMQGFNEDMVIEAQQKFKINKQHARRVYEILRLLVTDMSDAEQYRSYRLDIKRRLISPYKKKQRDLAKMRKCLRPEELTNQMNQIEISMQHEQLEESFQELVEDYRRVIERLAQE

[5] = target: T4, HDAC10 (h) (Homo sapiens, UniProt Q969S8); test: Epigenetic enzyme assay, Histone deacetylase (HDACs); format: biochemical; conditions: read-out: % Inhibition of Control Values
T4 sequence (Q969S8 1-669): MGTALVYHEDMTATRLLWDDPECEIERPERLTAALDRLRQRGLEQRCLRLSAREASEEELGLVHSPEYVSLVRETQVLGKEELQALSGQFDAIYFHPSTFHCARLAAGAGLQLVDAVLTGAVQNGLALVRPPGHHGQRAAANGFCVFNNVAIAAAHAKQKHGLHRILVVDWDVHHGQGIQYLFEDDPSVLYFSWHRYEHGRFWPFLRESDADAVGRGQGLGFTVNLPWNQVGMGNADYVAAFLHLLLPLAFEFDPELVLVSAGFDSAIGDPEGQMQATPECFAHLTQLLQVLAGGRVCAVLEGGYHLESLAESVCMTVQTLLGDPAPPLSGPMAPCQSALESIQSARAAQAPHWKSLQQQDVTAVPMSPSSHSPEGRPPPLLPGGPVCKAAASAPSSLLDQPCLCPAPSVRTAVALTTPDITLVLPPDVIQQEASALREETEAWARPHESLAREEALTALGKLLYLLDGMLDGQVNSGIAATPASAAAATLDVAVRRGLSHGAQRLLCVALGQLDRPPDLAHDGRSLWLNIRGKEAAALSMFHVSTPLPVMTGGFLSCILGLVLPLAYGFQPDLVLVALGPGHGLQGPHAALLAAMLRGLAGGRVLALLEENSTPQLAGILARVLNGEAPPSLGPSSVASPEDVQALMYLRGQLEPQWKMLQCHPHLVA

[6] = target: PRMT3 (h) (Homo sapiens, UniProt O60678); test: Epigenetic enzyme assay, Methyltransferases (MTs); format: biochemical; conditions: for inhibition at 10 µM: read-out: % Inhibition of Control Values
Chain of PRMT3 (h) (O60678 whole entry): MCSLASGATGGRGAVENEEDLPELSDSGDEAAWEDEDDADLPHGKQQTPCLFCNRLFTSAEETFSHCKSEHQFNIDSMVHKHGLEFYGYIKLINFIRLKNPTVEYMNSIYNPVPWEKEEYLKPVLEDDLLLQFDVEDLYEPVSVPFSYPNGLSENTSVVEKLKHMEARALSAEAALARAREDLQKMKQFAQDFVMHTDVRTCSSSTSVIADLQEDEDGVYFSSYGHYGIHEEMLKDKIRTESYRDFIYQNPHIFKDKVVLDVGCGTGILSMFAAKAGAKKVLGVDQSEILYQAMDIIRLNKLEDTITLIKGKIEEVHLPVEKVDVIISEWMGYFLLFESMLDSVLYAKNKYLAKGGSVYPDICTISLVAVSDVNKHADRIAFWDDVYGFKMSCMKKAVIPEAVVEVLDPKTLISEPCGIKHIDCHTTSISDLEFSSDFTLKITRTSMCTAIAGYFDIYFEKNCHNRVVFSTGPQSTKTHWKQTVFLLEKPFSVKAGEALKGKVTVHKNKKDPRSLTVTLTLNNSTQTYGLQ

[7] = target: SUV39H2 (h) (Homo sapiens, UniProt Q9H5I1); test: Epigenetic enzyme assay, Methyltransferases (MTs); format: biochemical; conditions: for inhibition at 10 µM: read-out: % Inhibition of Control Values
Chain of SUV39H2 (h) (Q9H5I1 whole entry): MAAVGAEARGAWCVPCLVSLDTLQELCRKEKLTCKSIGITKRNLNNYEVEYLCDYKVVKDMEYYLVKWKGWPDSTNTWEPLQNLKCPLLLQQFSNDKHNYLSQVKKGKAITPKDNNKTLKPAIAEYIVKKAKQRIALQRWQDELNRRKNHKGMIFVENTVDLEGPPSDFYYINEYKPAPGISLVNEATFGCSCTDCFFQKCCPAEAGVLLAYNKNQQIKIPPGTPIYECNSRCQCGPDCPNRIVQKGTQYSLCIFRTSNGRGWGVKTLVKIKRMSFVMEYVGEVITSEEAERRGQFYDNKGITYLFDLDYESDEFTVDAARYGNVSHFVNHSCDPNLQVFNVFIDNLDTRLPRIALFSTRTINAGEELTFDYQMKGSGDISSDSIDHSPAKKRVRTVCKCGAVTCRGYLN

[8] = target: PKBalpha/AKT1(h) (substrate histone H3 full length) (Homo sapiens, UniProt P31749); test: Epigenetic enzyme assay, Kinases; format: biochemical; conditions: read-out: % Inhibition of Control Values
Chain of PKBalpha/AKT1(h) (substrate histone H3 full length) (P31749 whole entry): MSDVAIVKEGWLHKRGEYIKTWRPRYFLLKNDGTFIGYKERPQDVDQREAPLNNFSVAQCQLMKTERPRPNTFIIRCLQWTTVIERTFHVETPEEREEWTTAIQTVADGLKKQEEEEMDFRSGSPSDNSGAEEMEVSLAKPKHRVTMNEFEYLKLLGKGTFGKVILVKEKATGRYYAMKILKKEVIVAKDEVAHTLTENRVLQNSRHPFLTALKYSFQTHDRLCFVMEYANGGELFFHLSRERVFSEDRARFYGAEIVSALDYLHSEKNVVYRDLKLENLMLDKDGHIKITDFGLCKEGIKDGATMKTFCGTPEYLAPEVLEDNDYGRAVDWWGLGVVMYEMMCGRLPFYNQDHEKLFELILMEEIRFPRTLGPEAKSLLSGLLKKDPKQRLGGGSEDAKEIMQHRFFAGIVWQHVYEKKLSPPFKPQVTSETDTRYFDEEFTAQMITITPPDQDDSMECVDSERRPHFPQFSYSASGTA

[9] = target: PKBbeta/AKT2(h) (substrate histone H3 full length) (Homo sapiens, UniProt P31751); test: Epigenetic enzyme assay, Kinases; format: biochemical; conditions: read-out: % Inhibition of Control Values
Chain of PKBbeta/AKT2(h) (substrate histone H3 full length) (P31751 whole entry): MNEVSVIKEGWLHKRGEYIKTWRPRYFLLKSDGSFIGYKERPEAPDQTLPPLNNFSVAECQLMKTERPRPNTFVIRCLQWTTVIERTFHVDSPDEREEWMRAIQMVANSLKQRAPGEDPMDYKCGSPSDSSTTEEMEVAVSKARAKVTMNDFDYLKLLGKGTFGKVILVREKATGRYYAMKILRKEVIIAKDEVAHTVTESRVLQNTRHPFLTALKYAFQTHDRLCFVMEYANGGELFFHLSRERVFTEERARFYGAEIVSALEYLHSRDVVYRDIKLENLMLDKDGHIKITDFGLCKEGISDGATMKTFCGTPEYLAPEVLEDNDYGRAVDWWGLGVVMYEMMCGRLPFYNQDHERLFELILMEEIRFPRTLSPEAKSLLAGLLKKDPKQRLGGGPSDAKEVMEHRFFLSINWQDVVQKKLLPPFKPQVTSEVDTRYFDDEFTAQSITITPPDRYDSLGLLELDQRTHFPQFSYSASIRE

[10] = tested on: Angiotensin, AT1/ACE; test: Angiotensin, AT1/ACE, guinea pig ileum (isotonic); parameters: species or system Dunkin Hartley Guinea pig; conditions: 10 μM; assay year 2015
Method: The in vitro pharmacological studies were conducted by Eurofins PanLab (Taiwan) using the parameters shown in Table 13 with respect to appropriate literature references.

[11] = target: T5, CYP2C19 (Homo sapiens, UniProt P33261); test: Cytochrome P450 Inhibition (CYP panel); format: in vitro ADME; conditions: human liver microsomes, probe omeprazole
T5 construct: Human liver microsomes; from tissue; host or cells: human liver microsomes
T5 sequence (P33261 whole entry): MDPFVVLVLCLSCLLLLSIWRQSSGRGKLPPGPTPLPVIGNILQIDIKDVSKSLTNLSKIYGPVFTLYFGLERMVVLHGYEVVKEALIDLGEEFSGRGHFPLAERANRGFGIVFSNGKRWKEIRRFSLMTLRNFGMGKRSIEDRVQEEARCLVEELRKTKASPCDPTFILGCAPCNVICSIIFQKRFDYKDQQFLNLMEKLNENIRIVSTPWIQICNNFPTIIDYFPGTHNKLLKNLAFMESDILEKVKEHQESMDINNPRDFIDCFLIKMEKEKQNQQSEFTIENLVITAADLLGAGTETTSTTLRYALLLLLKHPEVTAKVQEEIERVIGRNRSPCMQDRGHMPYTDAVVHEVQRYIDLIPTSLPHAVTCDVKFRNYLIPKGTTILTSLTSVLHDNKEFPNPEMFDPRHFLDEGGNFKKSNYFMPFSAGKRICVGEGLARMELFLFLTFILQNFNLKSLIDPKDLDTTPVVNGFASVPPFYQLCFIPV

[12] = target: CYP2D6 (Homo sapiens, UniProt P10635); test: in vitro; conditions: human liver microsomes, probe dextromethorphan
Chain of CYP2D6 (P10635 whole entry): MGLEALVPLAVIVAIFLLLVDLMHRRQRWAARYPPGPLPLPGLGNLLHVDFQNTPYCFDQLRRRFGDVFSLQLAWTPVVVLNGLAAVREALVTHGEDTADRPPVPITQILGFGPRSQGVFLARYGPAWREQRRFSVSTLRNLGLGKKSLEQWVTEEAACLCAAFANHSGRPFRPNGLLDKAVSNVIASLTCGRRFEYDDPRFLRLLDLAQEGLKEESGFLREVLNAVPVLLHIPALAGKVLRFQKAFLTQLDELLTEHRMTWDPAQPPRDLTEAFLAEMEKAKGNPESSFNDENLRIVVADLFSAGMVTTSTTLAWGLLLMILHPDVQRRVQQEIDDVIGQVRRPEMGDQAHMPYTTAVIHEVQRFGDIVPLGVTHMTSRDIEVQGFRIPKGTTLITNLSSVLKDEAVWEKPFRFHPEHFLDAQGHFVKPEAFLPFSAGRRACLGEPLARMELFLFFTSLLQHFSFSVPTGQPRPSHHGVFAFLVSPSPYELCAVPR

[13] = target: T6, CYP2B6 (Homo sapiens, UniProt P20813); test: Cytochrome P450 Inhibition (CYP panel); conditions: human, probe bupropion
T6 sequence (P20813 1-491): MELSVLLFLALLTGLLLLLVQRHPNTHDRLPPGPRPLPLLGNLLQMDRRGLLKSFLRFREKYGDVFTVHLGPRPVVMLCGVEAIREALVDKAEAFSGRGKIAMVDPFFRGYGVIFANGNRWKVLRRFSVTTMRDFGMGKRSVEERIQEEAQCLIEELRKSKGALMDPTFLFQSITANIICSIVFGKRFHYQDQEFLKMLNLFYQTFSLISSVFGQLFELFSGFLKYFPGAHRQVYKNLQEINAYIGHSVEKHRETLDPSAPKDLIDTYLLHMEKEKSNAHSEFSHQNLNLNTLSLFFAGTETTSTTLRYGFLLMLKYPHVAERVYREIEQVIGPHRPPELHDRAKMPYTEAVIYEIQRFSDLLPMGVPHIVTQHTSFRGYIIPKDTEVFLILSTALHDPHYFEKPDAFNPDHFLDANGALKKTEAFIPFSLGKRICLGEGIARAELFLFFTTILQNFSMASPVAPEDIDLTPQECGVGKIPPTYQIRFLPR

[14] = CYP2C19 (omeprazole sub.), Human liver microsomes, read-out: % Inhibition of Control Values

SMILES | inhibition at 10 µM [1] [%] | inhibition at 10 µM [2] [%] | inhibition at 10 µM [3] [%] | inhibition at 10 µM [4] [%] | inhibition at 10 µM [5] [%] | inhibition at 10 µM [6] [%] | inhibition at 10 µM [7] [%] | inhibition at 10 µM [8] [%] | inhibition at 10 µM [9] [%] | % Control Response, Agonist [10] [%] | % Control Response, Antagonist [10] [%] | inhibition at 1 µM ([11]; read-out: % inhibition) [%] | inhibition at 1 µM [11, 14] [%] | inhibition at 10 µM [11, 14] [%] | inhibition at 1 µM [12] [%] | inhibition at 10 µM [12] [%] | inhibition at 1 µM ([13]; human liver microsomes) [%] | inhibition at 1 µM ([13]; liver microsomes) [%] | inhibition at 10 µM ([13]; liver microsomes) [%] | also measured
CC(C)=CCC[C@H](CO)[C@@H]1CC[C@@H](C)c2c1cc(C)c(O)c2O [Compound 1, 7,8,18-trihydroxyserrulat-14-ene] | 61 | 17 | -5 | -3 | 1 | 22 | -8 | -1 | 13 | 0 | 34 | 25 to 37 | 37 | 90 | 12 to 21 | 45 | 13 to 16 | 13 | 55 | % Inhibition of Control Specific Binding [1]: significant inhibitory activity
CC(C)=CCC[C@@H]1C(O)Oc2c(C)cc(O)c3c2[C@H]1CC[C@H]3C (stereo partly drawn) [Compound 2, 5,18-epoxyserrulat-14-en-8,18-diol] | 30 | 6 | -1 | 3 | 3 | 50 | -16 | -19 | 11 | 0 | 10 | 25 to 37 | 34 | 73 | 12 to 21 | 44 | 13 to 16 | 15 | 38 | –
CC(C)=CCC[C@@H]1COc2c(C)cc(O)c3c2[C@H]1CC[C@H]3C [Compound 3, 5,18-epoxy-8-hydroxyserrulat-14-ene] | 23 | 3 | -9 | -3 | 6 | 14 | 14 | -15 | 12 | 0 | 17 | – | – | – | – | – | – | – | – | –
CC(C)=CCC[C@H](C)[C@@H]1CC[C@@H](C)c2c1cc(C)c(O)c2O [Compound 4, 7,8-dihydroxyserrulat-14-ene] | – | – | – | – | – | – | – | – | – | – | – | 25 to 37 | 25 | 78 | 12 to 21 | 45 | 13 to 16 | 16 | 49 | –
Nc1ncnc2c1ncn2[C@@H]1O[C@H](CSCC[C@H](N)C(=O)O)[C@@H](O)[C@H]1O [SAH] | – | – | – | – | – | – | – | – | – | – | – | – | – | – | – | – | – | – | – | IC50 ([6]; read-out: Reference IC50): 0.86 µM; IC50 ([7]; read-out: Reference IC50): 24 µM
